Reference: patent US12570656B2, “Purine compounds for treating disorders” (MARVEL BIOTECHNOLOGY, priority 2020, dated 2026)
Where “and” joins values, the source holds several entries; their conditions need not be identical. Identical values can stand only once. Like-named read-outs stand apart in the source and are kept apart here.

What was measured:
[1] = Brain pharmacokinetics and brain/plasma ratio in male CD-1 mice (1 mg/kg i.v.); format: in vivo; conditions: for concentration at 5 min / concentration at 0.25 h / concentration at 0.5 h / concentration at 1 h / concentration at 2 h / concentration at 4 h / concentration at 6 h / concentration at 8 h: intravenous
Protocol: (§1) Male CD-1 mice were given either bolus 1 mg/kg i.v. or 3 mg/kg p.o. of the indicated compounds and plasma or brain concentrations were measured.
(§2) Where: • C0 concentration extrapolated to time zero following an i.v. dose • tmax time at which maximum concentration is observed • Cmax maximum observed concentration • Apparent t1/2 apparent terminal half-life • AUC0-tlast area under the concentration vs time curve from time 0 to the time of the last measurable concentration • AUC0-inf area under the concentration vs time curve from time 0 to infinity • CL systemic clearance • MRT0-inf mean residence time from time zero to infinity • Vss steady-state volume of distribution • F oral bioavailability=(Dose^iv*AUC^po)/(Dose^po*AUC^iv)*100

[2] = Plasma pharmacokinetics in male CD-1 mice (1 mg/kg i.v. or 3 mg/kg p.o.); conditions: CD-1, mouse, in vivo
Protocol: as §1, §2

[3] = male, CD-1, mouse, iv, brain, i.v. 1 mg/kg

## CCn1c(=O)c2c(nc(/C=C/c3ccc(OC)c(OC)c3)n2C)n(CC)c1=O [Istradefylline, reference compound]
[1]; 1 mg/kg bolus i.v., 5 min, individual animals 1-3
  Brain concentration: 423 ng/g and 691 ng/g
[1]; 1 mg/kg bolus i.v., 0.25 h, individual animals 1-3
  Brain concentration: 474 ng/g and 418 ng/g
[1]; 1 mg/kg bolus i.v., 0.5 h, individual animals 1-3
  Brain concentration: 230 ng/g and 235 ng/g
[1]; 1 mg/kg bolus i.v., 1 h, individual animals 1-3
  Brain concentration: 209 ng/g and 237 ng/g
[1]; 1 mg/kg bolus i.v., 2 h, individual animals 1-3
  Brain concentration: 180 ng/g and 156 ng/g
[1]; 1 mg/kg bolus i.v., 4 h, individual animals 1-3
  Brain concentration: 76.8 ng/g and 79.5 ng/g
[1]; 1 mg/kg bolus i.v., 6 h, individual animals 1-3
  Brain concentration: 50.1 ng/g and 32.6 ng/g
[1]; 1 mg/kg bolus i.v., 8 h, individual animals 1-3
  Brain concentration: 22.2 ng/g and 17.1 ng/g
[1]; brain, i.v. 1 mg/kg
  AUC0-tlast: 938 ng·h/g
  AUC(0-inf): 1011 ng·h/g
[1]; male, CD-1, mouse, brain and plasma, iv, 1 mg/kg, 1 mg/kg bolus i.v., 5 min, individual animals 1-3, read-out: Brain/plasma concentration ratio
  Kp at 5 min: 0.726
[1]; male, CD-1, mouse, brain and plasma, iv, 1 mg/kg, 1 mg/kg bolus i.v., 5 min, read-out: Brain/plasma concentration ratio, Mean
  Kp at 5 min: 0.828
[1]; male, CD-1, mouse, brain and plasma, iv, 1 mg/kg, 1 mg/kg bolus i.v., 0.25 h, individual animals 1-3, read-out: Brain/plasma concentration ratio
  Kp at 0.25 h: 0.42
[1]; male, CD-1, mouse, brain and plasma, iv, 1 mg/kg, 1 mg/kg bolus i.v., 0.25 h, read-out: Brain/plasma concentration ratio, Mean
  Kp at 0.25 h: 0.516
[1]; male, CD-1, mouse, brain and plasma, iv, 1 mg/kg, 1 mg/kg bolus i.v., 0.5 h, read-out: Brain/plasma concentration ratio, Mean
  Kp at 0.5 h: 0.483
[1]; male, CD-1, mouse, brain and plasma, iv, 1 mg/kg, 1 mg/kg bolus i.v., 8 h, individual animals 1-3, read-out: Brain/plasma concentration ratio
  Kp at 8 h: 2.76
[1]; male, CD-1, mouse, brain and plasma, iv, 1 mg/kg, 1 mg/kg bolus i.v., 8 h, read-out: Brain/plasma concentration ratio, Mean
  Kp at 8 h: 2.25
[1]; male, CD-1, mouse, brain, 1 mg/kg, 1 mg/kg bolus i.v., 5 min, individual animals 1-3, read-out: Brain concentration
  concentration at 5 min: 545 ng/g
[1]; male, CD-1, mouse, brain, 1 mg/kg, 1 mg/kg bolus i.v., 5 min, read-out: Brain concentration, Mean
  concentration at 5 min: 553 ng/g
[1]; male, CD-1, mouse, brain, 1 mg/kg, 1 mg/kg bolus i.v., 0.25 h, individual animals 1-3, read-out: Brain concentration
  concentration at 0.25 h: 272 ng/g
[1]; male, CD-1, mouse, brain, 1 mg/kg, 1 mg/kg bolus i.v., 0.25 h, read-out: Brain concentration, Mean
  concentration at 0.25 h: 388 ng/g
[1]; male, CD-1, mouse, brain, 1 mg/kg, 1 mg/kg bolus i.v., 0.5 h, individual animals 1-3, read-out: Brain concentration
  concentration at 0.5 h: 372 ng/g
[1]; male, CD-1, mouse, brain, 1 mg/kg, 1 mg/kg bolus i.v., 0.5 h, read-out: Brain concentration, Mean
  concentration at 0.5 h: 279 ng/g
[1]; male, CD-1, mouse, brain, 1 mg/kg, 1 mg/kg bolus i.v., 1 h, individual animals 1-3, read-out: Brain concentration
  concentration at 1 h: 225 ng/g
[1]; male, CD-1, mouse, brain, 1 mg/kg, 1 mg/kg bolus i.v., 1 h, read-out: Brain concentration, Mean
  concentration at 1 h: 224 ng/g
[1]; male, CD-1, mouse, brain, 1 mg/kg, 1 mg/kg bolus i.v., 2 h, individual animals 1-3, read-out: Brain concentration
  concentration at 2 h: 171 ng/g
[1]; male, CD-1, mouse, brain, 1 mg/kg, 1 mg/kg bolus i.v., 2 h, read-out: Brain concentration, Mean
  concentration at 2 h: 169 ng/g
[1]; male, CD-1, mouse, brain, 1 mg/kg, 1 mg/kg bolus i.v., 4 h, individual animals 1-3, read-out: Brain concentration
  concentration at 4 h: 107 ng/g
[1]; male, CD-1, mouse, brain, 1 mg/kg, 1 mg/kg bolus i.v., 4 h, read-out: Brain concentration, Mean
  concentration at 4 h: 87.8 ng/g
[1]; male, CD-1, mouse, brain, 1 mg/kg, 1 mg/kg bolus i.v., 6 h, individual animals 1-3, read-out: Brain concentration
  concentration at 6 h: 39.8 ng/g
[1]; male, CD-1, mouse, brain, 1 mg/kg, 1 mg/kg bolus i.v., 6 h, read-out: Brain concentration, Mean
  concentration at 6 h: 40.8 ng/g
[1]; male, CD-1, mouse, brain, 1 mg/kg, 1 mg/kg bolus i.v., 8 h, individual animals 1-3, read-out: Brain concentration
  concentration at 8 h: 33.4 ng/g
[1]; male, CD-1, mouse, brain, 1 mg/kg, 1 mg/kg bolus i.v., 8 h, read-out: Brain concentration, Mean
  concentration at 8 h: 24.2 ng/g
[1]; male, CD-1, mouse, brain/plasma, iv, 1 mg/kg, 1 mg/kg bolus i.v., 1 h, individual animals 1-3, read-out: Brain/plasma concentration ratio
  Kp at 1 h: 0.534
[1]; male, CD-1, mouse, brain/plasma, iv, 1 mg/kg, 1 mg/kg bolus i.v., 1 h, read-out: Brain/plasma concentration ratio, Mean
  Kp at 1 h: 0.551
[1]; male, CD-1, mouse, brain/plasma, iv, 1 mg/kg, 1 mg/kg bolus i.v., 2 h, individual animals 1-3, read-out: Brain/plasma concentration ratio
  Kp at 2 h: 0.71
[1]; male, CD-1, mouse, brain/plasma, iv, 1 mg/kg, 1 mg/kg bolus i.v., 2 h, read-out: Brain/plasma concentration ratio, Mean
  Kp at 2 h: 0.655
[1]; male, CD-1, mouse, brain/plasma, iv, 1 mg/kg, 1 mg/kg bolus i.v., 4 h, individual animals 1-3, read-out: Brain/plasma concentration ratio
  Kp at 4 h: 0.87
[1]; male, CD-1, mouse, brain/plasma, iv, 1 mg/kg, 1 mg/kg bolus i.v., 4 h, read-out: Brain/plasma concentration ratio, Mean
  Kp at 4 h: 1
[1]; male, CD-1, mouse, brain/plasma, iv, 1 mg/kg, 1 mg/kg bolus i.v., 6 h, read-out: Brain/plasma concentration ratio, Mean
  Kp at 6 h: 0.96
[1]; male, CD-1, mouse, brain/plasma, iv, 1 mg/kg, i.v. 1 mg/kg, read-out: Brain/plasma AUC0-inf ratio
  Kp: 0.701
[1]; [3]
  Cmax: 553 ng/g
  Tmax: 5 min
[1]; male, CD-1, mouse, iv, brain, i.v. 1 mg/kg, read-out: Apparent t1/2 (converted)
  half-life: 2.1 h
[1]; male, CD-1, mouse, iv, brain, i.v. 1 mg/kg, read-out: MRT0-inf
  MRT inf: 2.96 h
[2]
  bioavailability: 30.9%
[2]; iv, 1 mg/kg
  AUC(0-inf): 1440 ng·h/mL
  AUC(0-t): 1420 ng·h/mL
  Cmax: 745 ng/mL
  MRT inf: 1.96 h
  Tmax: 0.25 h
  Vd: 1.36 L/kg
  clearance: 11.6 mL/min/kg
  half-life: 1.35 h
[2]; po, 3 mg/kg
  AUC(0-inf): 1340 ng·h/mL
  AUC(0-t): 1340 ng·h/mL
  Cmax: 250 ng/mL
  MRT inf: 3.82 h
  Tmax: 1 h
  half-life: 2.2 h
